Test results reported in paper PMC10763615, “Identification and engineering of potent cyclic peptides with selective or promiscuous binding through biochemical profiling and bioinformatic data analysis” (RSC Chemical Biology, 2023).
Read-outs that look alike come from different tables or passages of the source.

B1: FGF21: unlabelled FGF21, natural ligand used as positive control (protein, UniProt Q9NSA1 29-209, looked up)
Fibroblast growth factor 21: HPIPDSSPLLQFGGQVRQRYLYTDDAQQTEAHLEIREDGTVGGAADQSPESLLQLKALKPGVIQILGVKTSRFLCQRPDGALYGSLHFDPEACSFRELLLEDGYNVYQSEAHGLPLHLPGNKSPHRDPAPRGPARFLPLPGLPPALPEPPGILAPQPPDVGSSDPLSMVGPSQGRSPSYAS

Tests used:
FGF-R1C ECD [1] = target: T1, FGF-R1C ECD (Homo sapiens, UniProt P11362); assay: biochemical
T1 sequence (P11362 22-376 limits assumed): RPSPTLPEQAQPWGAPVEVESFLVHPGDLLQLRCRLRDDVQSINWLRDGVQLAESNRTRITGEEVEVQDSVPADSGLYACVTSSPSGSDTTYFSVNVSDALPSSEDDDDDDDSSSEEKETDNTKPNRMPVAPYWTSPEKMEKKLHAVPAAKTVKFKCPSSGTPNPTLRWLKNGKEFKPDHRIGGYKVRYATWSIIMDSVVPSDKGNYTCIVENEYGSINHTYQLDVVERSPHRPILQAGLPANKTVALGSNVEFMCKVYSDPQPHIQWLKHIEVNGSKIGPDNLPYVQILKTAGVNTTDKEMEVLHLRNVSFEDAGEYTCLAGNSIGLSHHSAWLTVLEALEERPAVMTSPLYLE
Procedure, shortened: (§1)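 Biolayer interferometry with biotinylated FGF-R ECD on streptavidin biosensors in PBS pH 7.4, 0.05% Tween-20, 0.01% BSA. Multi-concentration: purified peptide dilution series fitted to a multi-point KD model.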

FGF-R3C ECD [2] = target: T2, FGF-R3C ECD (Homo sapiens, UniProt P22607); assay: biochemical
T2 sequence (P22607 23-375 limits assumed): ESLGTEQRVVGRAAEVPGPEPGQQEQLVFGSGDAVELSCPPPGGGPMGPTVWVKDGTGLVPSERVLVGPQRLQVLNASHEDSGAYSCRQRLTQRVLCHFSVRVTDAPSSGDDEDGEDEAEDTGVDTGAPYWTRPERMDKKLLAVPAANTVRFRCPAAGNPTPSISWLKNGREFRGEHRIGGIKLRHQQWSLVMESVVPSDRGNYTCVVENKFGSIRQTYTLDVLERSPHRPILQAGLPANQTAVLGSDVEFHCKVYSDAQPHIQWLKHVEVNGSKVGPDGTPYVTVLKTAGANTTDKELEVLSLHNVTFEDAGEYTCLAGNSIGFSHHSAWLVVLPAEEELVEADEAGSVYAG
Procedure, shortened: as §1

FGF-R4 ECD [3] = target: T3, FGF-R4 ECD (Homo sapiens, UniProt P22455); assay: multi-concentration BLI of purified peptides; assay type: binding; settings: purified NNK library peptides
T3 construct: DNA constructs for the extracellular domain (ECD) of human FGF-; HPC4 (C); made in house; host or cells: HEK 293-6E
T3 sequence (P22455 22-369 limits assumed): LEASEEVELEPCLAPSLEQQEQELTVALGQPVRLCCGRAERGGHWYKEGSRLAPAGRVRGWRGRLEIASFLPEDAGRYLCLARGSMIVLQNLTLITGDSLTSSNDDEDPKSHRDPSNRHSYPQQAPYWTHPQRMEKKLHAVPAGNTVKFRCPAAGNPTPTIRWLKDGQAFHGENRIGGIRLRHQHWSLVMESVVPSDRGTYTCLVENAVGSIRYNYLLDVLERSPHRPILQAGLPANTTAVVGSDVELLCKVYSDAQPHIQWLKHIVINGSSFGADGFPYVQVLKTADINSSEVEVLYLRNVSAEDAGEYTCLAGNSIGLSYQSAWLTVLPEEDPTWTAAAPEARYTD
Procedure, shortened: as §1

FGF-R4 ECD [4] = target: T3, FGF-R4 ECD; assay: single concentration BLI of crude peptides; assay type: binding; settings: crude NNK peptides, single concentration BLI (Table S3); read-out: KD (4)
Procedure, shortened: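 Streptavidin biosensors carrying biotinylated FGF receptor ECD were immersed in peptide (~1 μM for crude single-point runs, a concentration series for purified peptides) and then in peptide-free buffer. KD was obtained by fitting the BLI association and dissociation curves.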

[5] = target: T4, FGFR1c/KLB (Fc-fused human FGF-R1alpha(IIIc) with beta-klotho) (Homo sapiens, UniProt P11362); assay: AlphaScreen FGF21 competitive binding assay
T4 sequence (P11362 22-376 limits assumed): T1 sequence (P11362 22-376 limits assumed)
Protocol: Alphascreen binding assay
(§3) The competitive binding assay was carried out according to the methods detailed in Hansen. et al using
(§4) AlphaScreen.3 All reagents and samples were prepared in assay buffer: 40mM Hepes, 140mM NaCl, 1mM
(§5) CaCl2, 0,05% Tween20, pH=7.5, 0.1% BSA. In brief, recombinant human beta-klotho (R&D Systems) was
(§6) preincubated for 60 min with the ectodomain, either Fc-fused human FGF-R1alpha(IIIc), FGF-R3alpha(IIIc)
(§7) or FGF-R4 (R&D Systems), and the mixture was added to the test peptides in OptiPlate™ (PerkinElmer).
(§8) Biotinylated FGF21 and heparin were further added to each well. AlphaScreen bead mix (1:1 mix of Protein
(§9) A acceptor beads/ streptavidin-coated donor beads, PerkinElmer) were added to each well incubated
(§10) overnight at RT in the dark, and measured on a plate reader (Envision). Assays were carried out in triplicates
(§11) with concentrations ranging from 3, 10, 30, 100, 300 ,1000 and 3000 nM of peptide. No peptide control
(§12) (media only) was used as a negative control, and unlabeled FGF21 and FGF1 as positive control.
(§13) competing with biotinylated natural FGF21 ligand.

[6] = target: T5, FGFR3c/BKL (Fc-fused human FGF-R3alpha(IIIc) with beta-klotho) (Homo sapiens, UniProt P22607); assay: AlphaScreen FGF21 competitive binding assay
T5 sequence (P22607 23-375 limits assumed): T2 sequence (P22607 23-375 limits assumed)
Protocol: Alphascreen binding assay
as §3, §4, §5, §6, §7, §8, §9, §10, §11, §12, §13

[7] = target: T6, FGFR4/KLB (Fc-fused human FGF-R4 with beta-klotho) (Homo sapiens, UniProt P22455); assay: AlphaScreen FGF21 competitive binding assay
T6 sequence (P22455 22-369 limits assumed): T3 sequence (P22455 22-369 limits assumed)
Protocol: Alphascreen binding assay
as §3, §4, §5, §6, §7, §8, §9, §10, §11, §12, §13

FGF-R1C ECD [8] = target: T1, FGF-R1C ECD; assay: biochemical; assay type: binding; design: DNA constructs for the extracellular domain (ECD) of human FGF-; HPC4 (C); made in house; host or cells: HEK 293-6E
Procedure, shortened: (§2)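 BLI, streptavidin sensors loaded with biotinylated receptor ECD. Single-point: ~1 μM crude peptide, PBS pH7.4/0.05% Tween-20/0.01% BSA; association then dissociation in buffer. KD corrected for UPLC-CAD-determined concentration.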

FGF-R3C ECD [9] = target: T2, FGF-R3C ECD; assay: biochemical; assay type: binding; design: DNA constructs for the extracellular domain (ECD) of human FGF-; HPC4 (C); made in house; host or cells: HEK 293-6E
Procedure, shortened: as §2

[10] = read-out: IC50 values for controls (FGF-R1C), positive controls, Alphascreen vs biotinylated FGF21
[11] = read-out: IC50 values for controls (FGF-R3C), positive controls, Alphascreen vs biotinylated FGF21
[12] = read-out: IC50 values for controls (FGF-R4), positive controls, Alphascreen vs biotinylated FGF21

Row | Molecule | Kd (FGF-R1C ECD [1]) [nM] | Kd (FGF-R3C ECD [2]) [nM] | Kd (FGF-R4 ECD [3]) [nM] | Kd (FGF-R4 ECD [4]) [nM] | IC50 [5] [nM] | IC50 [6] [nM] | IC50 [7] [nM] | Kd (FGF-R1C ECD [8]) [nM] | Kd (FGF-R3C ECD [9]) [nM] | further results
1 | CC[C@H](C)[C@@H]1NC(=O)[C@@H]2CCCN2C(=O)[C@H](Cc2ccccc2)NC(=O)[C@@H]2CCCN2C(=O)[C@H](Cc2c[nH]c3ccccc23)NC(=O)[C@@H]2CCCN2C(=O)[C@H](Cc2ccccc2)NC(=O)[C@H](CCCCN)NC(=O)[C@H]([C@@H](C)O)NC(=O)[C@@H](NC(=O)[C@@H](N)CCSC)CSSC[C@@H](C(=O)NCC(=O)N[C@@H](CO)C(=O)NCC(=O)N[C@@H](CO)C(=O)N[C@@H](CC(=O)O)C(=O)N[C@@H](Cc2ccc(O)cc2)C(=O)N[C@@H](CCCCN)C(=O)N[C@@H](CC(=O)O)C(=O)N[C@@H](CC(=O)O)C(=O)N[C@@H](CC(=O)O)C(=O)N[C@@H](CC(=O)O)C(=O)N[C@@H](CCCCN)C(N)=O)NC(=O)[C@H](C)NC(=O)[C@H](Cc2c[nH]c3ccccc23)NC(=O)[C@H](Cc2ccccc2)NC1=O [1C.8] | 323 | > 1000 | 464 | 70 | 112 | > 1000 | 431 | 155 | 47 | 
2 | CC[C@H](C)[C@@H]1NC(=O)[C@H](Cc2ccccc2)NC(=O)[C@@H]2CCCN2C(=O)[C@H](C(C)C)NC(=O)[C@H](Cc2ccccc2)NC(=O)[C@H](CO)NC(=O)[C@H](CC(=O)O)NC(=O)[C@H](Cc2ccccc2)NC(=O)[C@H](CC(C)C)NC(=O)[C@@H](NC(=O)[C@@H](N)CCSC)CSSC[C@@H](C(=O)NCC(=O)N[C@@H](CO)C(=O)NCC(=O)N[C@@H](CO)C(=O)N[C@@H](CC(=O)O)C(=O)N[C@@H](Cc2ccc(O)cc2)C(=O)N[C@@H](CCCCN)C(=O)N[C@@H](CC(=O)O)C(=O)N[C@@H](CC(=O)O)C(=O)N[C@@H](CC(=O)O)C(=O)N[C@@H](CC(=O)O)C(=O)N[C@@H](CCCCN)C(N)=O)NC(=O)[C@H](Cc2ccccc2)NC1=O [3C.3] |  |  | > 1000 | > 10000 |  |  |  |  |  | Kd (FGF-R1C ECD [1]; read-out: R1C KD, purified NNK library peptides, multi-concentration BLI): > 1000 nM; Kd (FGF-R3C ECD [2]; read-out: R3C KD, purified NNK library peptides, multi-concentration BLI): 21 nM; IC50 ([5]; read-out: R1C competitive IC50, purified peptides, Alphascreen vs biotinylated FGF21): > 1000 nM; IC50 ([6]; read-out: R3C competitive IC50, purified peptides, Alphascreen vs biotinylated FGF21): 95 nM; IC50 ([7]; read-out: R4 competitive IC50, purified peptides, Alphascreen vs biotinylated FGF21): > 1000 nM; Kd (FGF-R1C ECD [8]; read-out: KD (1C)): > 10000 nM; Kd (FGF-R3C ECD [9]; read-out: KD(3C)): 29 nM
3 | CSCC[C@H](NC(C)=O)C(=O)N[C@H]1CSSC[C@@H](C(=O)NCC(=O)N[C@@H](CO)C(=O)NCC(=O)N[C@@H](CO)C(=O)N[C@@H](CC(=O)O)C(=O)N[C@@H](Cc2ccc(O)cc2)C(=O)N[C@@H](CCCCN)C(=O)N[C@@H](CC(=O)O)C(=O)N[C@@H](CC(=O)O)C(=O)N[C@@H](CC(=O)O)C(=O)N[C@@H](CC(=O)O)C(=O)N[C@@H](CCCCN)C(N)=O)NC(=O)[C@H](CO)NC(=O)[C@H](CCCNC(=N)N)NC(=O)[C@H](Cc2ccccc2)NC(=O)[C@H](C)NC(=O)[C@H](CC(C)C)NC(=O)[C@H](Cc2ccc(O)cc2)NC(=O)[C@H](Cc2ccc(O)cc2)NC(=O)[C@H](C)NC(=O)[C@H](CC(C)C)NC(=O)[C@H](Cc2c[nH]cn2)NC1=O [4.3] | > 1000 | > 1000 | 86 | 58 | > 1000 | > 1000 | 508 | > 10000 | > 10000 | 
4 | CC[C@H](C)[C@@H]1NC(=O)[C@@H](NC(=O)[C@H](CCSC)NC(C)=O)CSSC[C@@H](C(=O)NCC(=O)N[C@@H](CO)C(=O)NCC(=O)N[C@@H](CO)C(=O)N[C@@H](CC(=O)O)C(=O)N[C@@H](Cc2ccc(O)cc2)C(=O)N[C@@H](CCCCN)C(=O)N[C@@H](CC(=O)O)C(=O)N[C@@H](CC(=O)O)C(=O)N[C@@H](CC(=O)O)C(=O)N[C@@H](CC(=O)O)C(=O)N[C@@H](CCCCN)C(N)=O)NC(=O)[C@H](CCC(=O)O)NC(=O)[C@H](C(C)C)NC(=O)[C@H](Cc2c[nH]c3ccccc23)NC(=O)[C@H](Cc2ccccc2)NC(=O)[C@H](CC(=O)O)NC(=O)[C@H](CO)NC(=O)[C@H](CC(C)C)NC(=O)[C@H](CCCNC(=N)N)NC(=O)[C@H](Cc2ccc(O)cc2)NC1=O [1C.7] | > 1000 | > 1000 | > 1000 | 45 | 473 | 631 | 406 | 47 | 281 | 
5 | CSCC[C@@H]1NC(=O)[C@H](CC(N)=O)NC(=O)[C@H](CO)NC(=O)[C@@H](NC(=O)[C@@H](N)CCSC)CSSC[C@@H](C(=O)NCC(=O)N[C@@H](CO)C(=O)NCC(=O)N[C@@H](CO)C(=O)N[C@@H](CC(=O)O)C(=O)N[C@@H](Cc2ccc(O)cc2)C(=O)N[C@@H](CCCCN)C(=O)N[C@@H](CC(=O)O)C(=O)N[C@@H](CC(=O)O)C(=O)N[C@@H](CC(=O)O)C(=O)N[C@@H](CC(=O)O)C(=O)N[C@@H](CCCCN)C(N)=O)NC(=O)[C@H](C)NC(=O)[C@H](Cc2c[nH]c3ccccc23)NC(=O)[C@H](Cc2c[nH]c3ccccc23)NC(=O)[C@H](CCCNC(=N)N)NC(=O)[C@H](CC(N)=O)NC(=O)[C@H](C)NC(=O)[C@H](CC(C)C)NC(=O)[C@H](CCCCN)NC(=O)[C@H](Cc2c[nH]c3ccccc23)NC1=O [1C.3] |  |  | > 1000 | > 10000 |  |  | > 1000 |  |  | 
6 | CSCC[C@H](NC(C)=O)C(=O)N[C@H]1CSSC[C@@H](C(=O)NCC(=O)N[C@@H](CO)C(=O)NCC(=O)N[C@@H](CO)C(=O)N[C@@H](CC(=O)O)C(=O)N[C@@H](Cc2ccc(O)cc2)C(=O)N[C@@H](CCCCN)C(=O)N[C@@H](CC(=O)O)C(=O)N[C@@H](CC(=O)O)C(=O)N[C@@H](CC(=O)O)C(=O)N[C@@H](CC(=O)O)C(=O)N[C@@H](CCCCN)C(N)=O)NC(=O)[C@H](CCCNC(=N)N)NC(=O)[C@H](CC(C)C)NC(=O)[C@H](CCCCN)NC(=O)[C@H]([C@@H](C)O)NC(=O)[C@H](C(C)C)NC(=O)[C@H](CCCCN)NC(=O)[C@H](Cc2ccc(O)cc2)NC(=O)[C@H](Cc2c[nH]c3ccccc23)NC(=O)[C@H]([C@@H](C)O)NC(=O)[C@H](C(C)C)NC1=O [4.4] | > 1000 | > 1000 | > 1000 | 57 |  |  |  | > 10000 | > 10000 | 
7 | FGF1: FGF1 used as positive control [reference compound] |  |  |  |  |  |  |  |  |  | IC50 [5, 10]: 4 nM; IC50 [6, 11]: 3 nM; IC50 [7, 12]: 7 nM
8 | B1 |  |  |  |  |  |  |  |  |  | IC50 [5, 10]: 23 nM; IC50 [6, 11]: 20 nM; IC50 [7, 12]: 674 nM
